Consider 23 compounds from patent US7750003B2, “Compounds-943” (AstraZeneca AB, priority 2006, dated 2010).

For this test, the target named is recombinant mTOR (FLAG-tagged, residues 1362-2549) (Homo sapiens, UniProt P42345). The test can be described thus: In vitro mTOR kinase assay (Test (a), AlphaScreen). The class given is biochemical. The settings on record: ATP 20 μM, read-out: Test (a): IC50 versus mTOR kinase. An outline of the steps: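 AlphaScreen read-out: a phospho-T389 p70 S6K antibody on acceptor beads captures the phosphorylated biotin-peptide on donor beads, with signal loss indicating inhibition.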
recombinant mTOR (FLAG-tagged, residues 1362-2549), sequence (P42345 1362-2549): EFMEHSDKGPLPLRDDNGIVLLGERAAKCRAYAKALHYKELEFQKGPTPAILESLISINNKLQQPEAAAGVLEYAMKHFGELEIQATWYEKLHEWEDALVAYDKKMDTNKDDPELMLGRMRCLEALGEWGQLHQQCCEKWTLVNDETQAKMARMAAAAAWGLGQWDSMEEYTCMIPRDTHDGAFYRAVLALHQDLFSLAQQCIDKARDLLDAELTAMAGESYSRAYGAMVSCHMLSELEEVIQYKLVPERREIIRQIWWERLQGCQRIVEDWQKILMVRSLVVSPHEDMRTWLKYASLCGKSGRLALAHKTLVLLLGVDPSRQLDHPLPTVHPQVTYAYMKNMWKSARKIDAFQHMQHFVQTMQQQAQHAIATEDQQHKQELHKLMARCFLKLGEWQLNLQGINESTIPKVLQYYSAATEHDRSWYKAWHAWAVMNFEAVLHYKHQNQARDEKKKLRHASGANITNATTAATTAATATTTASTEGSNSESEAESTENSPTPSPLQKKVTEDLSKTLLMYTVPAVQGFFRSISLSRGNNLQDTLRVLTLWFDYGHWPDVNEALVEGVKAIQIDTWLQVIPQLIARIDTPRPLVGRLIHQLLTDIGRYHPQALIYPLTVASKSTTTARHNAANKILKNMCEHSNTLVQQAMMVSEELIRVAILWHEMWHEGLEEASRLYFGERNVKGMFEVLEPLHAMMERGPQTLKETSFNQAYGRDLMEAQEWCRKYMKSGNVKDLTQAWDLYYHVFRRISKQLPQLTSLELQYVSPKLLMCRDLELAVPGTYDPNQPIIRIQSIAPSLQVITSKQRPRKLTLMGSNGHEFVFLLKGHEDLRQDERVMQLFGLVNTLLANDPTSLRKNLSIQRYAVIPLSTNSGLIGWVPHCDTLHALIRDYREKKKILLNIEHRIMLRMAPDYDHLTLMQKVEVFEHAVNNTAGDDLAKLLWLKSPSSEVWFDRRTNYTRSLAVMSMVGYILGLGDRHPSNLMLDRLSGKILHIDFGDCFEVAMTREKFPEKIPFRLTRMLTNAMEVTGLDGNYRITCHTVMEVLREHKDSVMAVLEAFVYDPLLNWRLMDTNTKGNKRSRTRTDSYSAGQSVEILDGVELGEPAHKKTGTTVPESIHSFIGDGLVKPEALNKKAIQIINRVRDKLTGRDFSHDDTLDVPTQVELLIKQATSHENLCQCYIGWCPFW
(Bead proximity is the source of the signal in Alpha formats.)
On to `Cn1ccc(NC(=O)Nc2ccc(-c3nc(CS(C)(=O)=O)cc(N4CCOCC4)n3)cc2)n1` [Example 34c, 1-(1-methylpyrazol-3-yl)-3-[4-[4-(methylsulfonylmethyl)-6-morpholin-4-yl-pyrimidin-2-yl]phenyl]urea], for which the IC50 is 0.72 µM.

`CC(CO)NC(=O)Nc1ccc(-c2nc(CS(C)(=O)=O)cc(N3CCOC[C@@H]3C)n2)cc1` (stereo partly drawn) [Example 35, 3-(1-Hydroxypropan-2-yl)-1-[4-[4-[(3S)-3-methylmorpholin-4-yl]-6-(methylsulfonylmethyl)pyrimidin-2-yl]phenyl]urea]: the IC50 was 0.064 µM.

As for `C[C@H]1COCCN1c1cc(CS(C)(=O)=O)nc(-c2ccc(NC(=O)NCCCN(C)C)cc2)n1` [Example 35a, 3-(3-dimethylaminopropyl)-1-[4-[4-[(3S)-3-methylmorpholin-4-yl]-6-(methylsulfonylmethyl)pyrimidin-2-yl]phenyl]urea], the IC50 was 6.4 µM.

Consider `COCCCNC(=O)Nc1ccc(-c2nc(CS(C)(=O)=O)cc(N3CCOC[C@@H]3C)n2)cc1` [Example 35b, 3-(3-methoxypropyl)-1-[4-[4-[(3S)-3-methylmorpholin-4-yl]-6-(methylsulfonylmethyl)pyrimidin-2-yl]phenyl]urea], for which the IC50 turned out to be 0.42 µM.

Regarding `C[C@H]1COCCN1c1cc(CS(C)(=O)=O)nc(-c2ccc(NC(=O)N3CCCC3)cc2)n1` [Example 35c, N-[4-[4-[(3S)-3-methylmorpholin-4-yl]-6-(methylsulfonylmethyl)pyrimidin-2-yl]phenyl]pyrrolidine-1-carboxamide], the concentration for half-maximal inhibition (IC50) was determined as 3.4 µM.

As to `C[C@H]1COCCN1c1cc(CS(C)(=O)=O)nc(-c2ccc(NC(=O)N3CCOCC3)cc2)n1` [Example 35d, N-[4-[4-[(3S)-3-methylmorpholin-4-yl]-6-(methylsulfonylmethyl)pyrimidin-2-yl]phenyl]morpholine-4-carboxamide], the IC50 turned out to be 3.2 µM.

With `C[C@H]1COCCN1c1cc(CS(C)(=O)=O)nc(-c2ccc(NC(=O)N3CCC(O)CC3)cc2)n1` [Example 35e, 4-hydroxy-N-[4-[4-[(3S)-3-methylmorpholin-4-yl]-6-(methylsulfonylmethyl)pyrimidin-2-yl]phenyl]piperidine-1-carboxamide], the IC50 amounted to 2.5 µM.

Turning to `C[C@H]1COCCN1c1cc(CS(C)(=O)=O)nc(-c2ccc(NC(=O)NC(C)(C)C)cc2)n1` [Example 35f, 1-[4-[4-[(3S)-3-methylmorpholin-4-yl]-6-(methylsulfonylmethyl)pyrimidin-2-yl]phenyl]-3-tert-butyl-urea], the IC50 stood at 0.82 µM.

For `C[C@H]1COCCN1c1cc(CS(C)(=O)=O)nc(-c2ccc(NC(=O)N3CCCC(O)C3)cc2)n1` (stereo partly drawn) [Example 35i, 3-hydroxy-N-[4-[4-[(3S)-3-methylmorpholin-4-yl]-6-(methylsulfonylmethyl)pyrimidin-2-yl]phenyl]piperidine-1-carboxamide], the IC50 was 0.77 µM.

As to `C[C@H]1COCCN1c1cc(CS(C)(=O)=O)nc(-c2ccc(NC(=O)N(C)CCN(C)C)cc2)n1` [Example 35j, 1-(2-dimethylaminoethyl)-1-methyl-3-[4-[4-[(3S)-3-methylmorpholin-4-yl]-6-(methylsulfonylmethyl)pyrimidin-2-yl]phenyl]urea], the IC50 is 3.6 µM.

Turning to `C[C@H]1COCCN1c1cc(CS(C)(=O)=O)nc(-c2ccc(NC(=O)NCCN3CCOCC3)cc2)n1` [Example 35k, 1-[4-[4-[(3S)-3-methylmorpholin-4-yl]-6-(methylsulfonylmethyl)pyrimidin-2-yl]phenyl]-3-(2-morpholin-4-ylethyl)urea], the 50% inhibitory concentration (IC50) was found to be 1.2 µM.

For `C[C@H]1COCCN1c1cc(CS(C)(=O)=O)nc(-c2ccc(NC(=O)NCc3ncc[nH]3)cc2)n1` [Example 35l, 3-(1H-imidazol-2-ylmethyl)-1-[4-[4-[(3S)-3-methylmorpholin-4-yl]-6-(methylsulfonylmethyl)pyrimidin-2-yl]phenyl]urea], the concentration for half-maximal inhibition (IC50) is 0.47 µM.

As for `C[C@H]1COCCN1c1cc(CS(C)(=O)=O)nc(-c2ccc(NC(=O)N(C)C3CC3)cc2)n1` [Example 35m, 1-cyclopropyl-1-methyl-3-[4-[4-[(3S)-3-methylmorpholin-4-yl]-6-(methylsulfonylmethyl)pyrimidin-2-yl]phenyl]urea], the concentration for half-maximal inhibition (IC50) was determined as 2 µM.

`C[C@H]1COCCN1C(=O)Nc1ccc(-c2nc(CS(C)(=O)=O)cc(N3CCOC[C@@H]3C)n2)cc1` [Example 35n, (3S)-3-methyl-N-[4-[4-[(3S)-3-methylmorpholin-4-yl]-6-(methylsulfonylmethyl)pyrimidin-2-yl]phenyl]morpholine-4-carboxamide]: the IC50 was 1.1 µM.

Turning to `C[C@H]1COCCN1C(=O)c1cc(N2CCOC[C@@H]2C)nc(-c2ccc(NC(=O)NC3CC3)cc2)n1` [Example 36, 3-Cyclopropyl-1-[4-[4-[(3S)-3-methylmorpholine-4-carbonyl]-6-[(3S)-3-methylmorpholin-4-yl]pyrimidin-2-yl]phenyl]urea], the IC50 came to 0.062 µM.

For `C[C@H]1COCCN1c1cc(C(=O)NC2CC2)nc(-c2ccc(NC(=O)NC3CC3)cc2)n1` [Example 36a, N-cyclopropyl-2-[4-(cyclopropylcarbamoylamino)phenyl]-6-[(3S)-3-methylmorpholin-4-yl]pyrimidine-4-carboxamide], the IC50 was determined as 2.9 µM.

Consider `C[C@H]1COCCN1c1cc(C(=O)N2CCN(C)CC2)nc(-c2ccc(NC(=O)NC3CC3)cc2)n1` [Example 36b, 3-cyclopropyl-1-[4-[4-[(3S)-3-methylmorpholin-4-yl]-6-(4-methylpiperazine-1-carbonyl)pyrimidin-2-yl]phenyl]urea], for which the 50% inhibitory concentration (IC50) was 0.18 µM.

As to `C[C@H]1COCCN1c1cc(C(C)(C)O)nc(-c2ccc(NC(=O)NC3CC3)cc2)n1` [Example 37, 3-Cyclopropyl-1-[4-[4-(2-hydroxypropan-2-yl)-6-[(3S)-3-methylmorpholin-4-yl]pyrimidin-2-yl]phenyl]urea], the 50% inhibitory concentration (IC50) was determined as 0.051 µM.

Take `C[C@H]1COCCN1c1cc(C(C)(C)O)nc(-c2ccc(NC(=O)NCc3cnn(C)c3)cc2)n1` [Example 38, 1-[4-[4-(2-Hydroxypropan-2-yl)-6-[(3S)-3-methylmorpholin-4-yl]pyrimidin-2-yl]phenyl]-3-[(1-methylpyrazol-4-yl)methyl]urea]: the IC50 worked out at 1.3 µM.

For `C[C@H]1COCCN1c1cc(CO)nc(-c2ccc(NC(=O)Nc3ccon3)cc2)n1` [Example 39, 1-[4-[4-(Hydroxymethyl)-6-[(3S)-3-methylmorpholin-4-yl]pyrimidin-2-yl]phenyl]-3-(1,2-oxazol-3-yl)urea], the IC50 stood at 0.075 µM.

As to `C[C@H]1COCCN1c1cc(CO)nc(-c2ccc(NC(=O)NC3CC3)cc2)n1` [Example 42, 3-Cyclopropyl-1-[4-[4-(hydroxymethyl)-6-[(3S)-3-methylmorpholin-4-yl]pyrimidin-2-yl]phenyl]urea], the IC50 was determined as 0.19 µM.

In the case of `C[C@H]1COCCN1c1cc(CS(=O)(=O)c2ccncc2)nc(-c2ccc(NC(=O)NC3CC3)cc2)n1` [Example 43, 3-Cyclopropyl-1-[4-[4-[(3S)-3-methylmorpholin-4-yl]-6-(pyridin-4-ylsulfonylmethyl)pyrimidin-2-yl]phenyl]urea], the IC50 turned out to be 0.076 µM.

In the case of `CNC(=O)CS(=O)(=O)Cc1cc(N2CCOC[C@@H]2C)nc(-c2ccc(NC(=O)NC3CC3)cc2)n1` [Example 43a, 2-[[2-[4-(cyclopropylcarbamoylamino)phenyl]-6-[(3S)-3-methylmorpholin-4-yl]pyrimidin-4-yl]methylsulfonyl]-N-methyl-acetamide], the IC50 is 0.087 µM.

One may read the IC50 as the midpoint of a concentration-inhibition curve.
